Columns and labels:
[1] = test system: glomerular epithelial cells GEC; assay: PAN-induced cytotoxicity to GEC (trypan blue exclusion, LDH release); type: cell-based, rat; details: PAN 1.5 mM 48 h; preincubation CM 2 mM, PB 25 μM, RN 1 mM, PIP 0.2 mM, pyruvate 10 mM
Experimental: Rat GEC (kindly provided by both Dr. Saulo Klahr, Washington University School of Medicine, St. Louis, Mo., and Dr. […], University of Texas Health Science Center, San Antonio, Tex.) were maintained in RPMI-1640 medium supplemented with 10% FBS, 15 mM HEPES, insulin, penicillin, streptomycin and L-glutamine in a humidified atmosphere of 95% air-5% CO2 at 37° C. and fed at intervals of 3 days ([…] et al, 1995, Biochem. Biophys. 318(2):286-294). The cells were maintained in 75 Cm^2 tissue culture flasks and the monolayers were subcultured using 0.05% trypsin-0.53 mM EDTA in Hank's balanced salt solution (HBSS). For the experimental study, the cells were grown in 12-well tissue culture plate until confluence. On the day of experiment, the medium was discarded and the confluent GEC monolayer was washed twice with HBSS. The cells were then incubated with various concentrations of PAN (0, 0.1, 0.5, 1.0, 1.5, and 2.0 mM in HBSS) for different periods of time (0, 6 hours, 1 day, 2 days, 3 days and 4 days) at 37° C. At the end of the incubation, the incubation medium was discarded and the GEC monolayer was harvested by trypsinization with 0.05% trypsin-0.53 mM EDTA for 5 min at 37° C. Isolated cells were suspended in HBSS to give about 10^6 cells/ml. PAN-induced cytotoxicity to GEC was measured by the trypan blue exclusion assay (Baliga et al, 1996, Kidney Intl. 50:1118-1124) and lactate dehydrogenase (LDH) release assay (Baliga et al., 1998, Kidney Intl. 53:394-401.). The latter is the percentage of LDH released into the medium, to total LDH recovered from both medium and cellular fraction. […] After the incubation, the cell monolayers were washed twice with HBSS and then incubated with cytotoxic dose of PAN in HBSS for a period of time necessary to induce consistent cytotoxicity ([…], 48 h, based on the concentration and time course studies) at 37° C. PAN induced cytotoxicity on GEC was measured by trypan blue exclusion assay.

CYP2B1 = CYP2B1 content in GEC exposed to PAN (western blot); type: cell-based, rat; details: PAN 1.5 mM for 2 hr at 37° C.; CM 2 mM, PIP 0.2 mM, pyruvate 10 mM
From the text: The microsome fraction obtained was subjected to SDS-page electrophoresis in 1 mm slab gels. The separated forms were transferred from gel to a nitrocellulose sheet using a Mini Trans-blot electroblotting unit. The primary antibodies were monoclonal anti-HO-1 (OSA-111, StressGen, Victoria, BC, Canada) and monoclonal anti-CYP2B1 (PM25, Oxford Biomedical Research, Oxford, Mich., USA). Subsequent to primary and secondary antibody (peroxidase-labeled) treatment, the blots were visualized by enhanced chemiluminescence method.

CYP = details: cited from earlier work
[2] = Weight loss/gain of rats before and after treatments (PAN-induced nephrotic syndrome); type: in vivo, rat; details: rats, day 7; PAN 7.5 mg/100 g BW iv; CM 120 mg/kg ip twice a day; PB 400 mg/kg ip every other day; means ± SE
Experimental: Two different general CYP inhibitors were used, cimetidine (CM) and piperonyl butoxide (PB). Cimetidine has imidazole and cyano groups that inhibit CYP by interacting with the heme moiety. […] To determine the effect of the CYP inhibitors in PAN- induced nephrotic syndrome, CM (120 mg/kg BW) was administered intraperitoneal 1 h prior to PAN injection and then twice a day. Piperonyl butoxide (PB) which yields a metabolite that binds to the heme moiety of CYP, was given intraperitoneal (400 mg/kg BW) 4h before PAN injection and then every other day.
Also, the CYP2B1 inhibitor piperine (PIP), a methylenedioxyphenyl compound found in black and red pepper was used. PIP is believed to inhibit CYP2B1 by forming an inhibitory complex therewith. PIP was administered at a dose of 85 mg/kg of body weight (BW) by an intraperitoneal injection 16 hours prior to PAN injection and then once a day.

SMILES	PAN-induced cytotoxicity to GEC [1]	CYP2B1 content in GEC (CYP2B1)	inhibition of CYP (CYP)	Body weight After Treatment (day7) [2] [g]
CC(=O)C(=O)O [pyruvate]	prevent	preserve	–	–
CNC(=C[N+](=O)[O-])NCCSCc1ccc(CN(C)C)o1 [RN, ranitidine]	did not show any protection	not	either weakly or not at all	–
CCCCOCCOCCOCc1cc2c(cc1CCC)OCO2 [PB, piperonyl butoxide]	–	–	–	253 ± 4
O=C(/C=C/C=C/c1ccc2c(c1)OCO2)N1CCCCC1 [PIP, piperine]	markedly reduced	preserved	–	–
